Experimental data from patent publication US7923465B2, “Cannabinoid receptor ligands, pharmaceutical compositions containing them, and process for their preparation” (priority 2005, dated 2011).
Where two headings read alike, the source gives them in different places.

Assays:
hCB1 = hCB1 (Homo sapiens, UniProt P21554); assay: Antagonism of CB1 receptors expressed in CHO cells, cAMP assay against CP 55,940 (Protocol IX.1); format: cell-based; design: expressed in transfected cells; host or cells: CHO (h-CB1/CHO, G418-selected); conditions: h-CB1/CHO cells, cAMP, vs 30 nM CP 55,940; for inhibition at 10 µM: read-out: hCB1 Antagonism
hCB1, sequence (P21554 whole entry): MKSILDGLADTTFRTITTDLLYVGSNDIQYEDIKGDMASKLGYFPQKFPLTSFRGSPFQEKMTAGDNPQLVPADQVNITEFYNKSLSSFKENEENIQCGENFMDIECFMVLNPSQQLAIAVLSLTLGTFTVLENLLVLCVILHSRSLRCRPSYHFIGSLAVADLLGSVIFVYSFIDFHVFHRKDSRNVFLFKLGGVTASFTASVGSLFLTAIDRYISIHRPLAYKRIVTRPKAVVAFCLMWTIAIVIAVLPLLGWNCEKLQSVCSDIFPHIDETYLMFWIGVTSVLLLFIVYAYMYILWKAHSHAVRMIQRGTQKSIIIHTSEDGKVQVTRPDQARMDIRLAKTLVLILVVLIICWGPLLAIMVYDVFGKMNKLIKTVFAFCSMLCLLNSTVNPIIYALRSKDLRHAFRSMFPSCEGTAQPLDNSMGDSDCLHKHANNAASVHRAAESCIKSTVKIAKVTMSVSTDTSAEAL

hCB2 [1] = target: T1, hCB2 (Homo sapiens, UniProt P34972); assay: Agonism of CB2 receptors expressed in CHO cells, forskolin cAMP assay (Protocol IX.2); format: cell-based; design: expressed in transfected cells; host or cells: CHO (h-CB2/CHO, G418-selected); conditions: cAMP
T1 sequence (P34972 whole entry): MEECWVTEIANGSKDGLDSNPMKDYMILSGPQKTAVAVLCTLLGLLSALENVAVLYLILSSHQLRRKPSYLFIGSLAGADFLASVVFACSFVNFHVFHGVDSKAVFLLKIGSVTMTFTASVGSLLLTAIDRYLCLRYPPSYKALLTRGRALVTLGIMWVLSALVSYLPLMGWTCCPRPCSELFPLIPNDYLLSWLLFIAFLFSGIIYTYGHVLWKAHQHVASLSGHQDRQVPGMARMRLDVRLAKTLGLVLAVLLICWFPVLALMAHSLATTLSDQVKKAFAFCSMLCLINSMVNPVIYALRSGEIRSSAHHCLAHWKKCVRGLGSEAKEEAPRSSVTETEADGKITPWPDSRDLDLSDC
How it was run: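 CHO cells expressing h-CB2 were treated with compound in Krebs buffer with 0.1% FAF BSA and 1 mM IBMX, plus 10 uM forskolin, for 30 minutes at room temperature. cAMP in lysates was measured by chemiluminescence. EC50 was derived by nonlinear regression of dose–response curves, with CP 55,940 at 10 μM as reference for CB2.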

hCB2 [2] = target: T1, hCB2; assay: Antagonism of CB2 receptors expressed in CHO cells, cAMP assay against CP 55,940 (Protocol IX.1); format: cell-based; design: expressed in transfected cells; host or cells: CHO (h-CB2/CHO, G418-selected); conditions: CHO, h-CB2/CHO cells, vs 10 nM CP 55,940
How it was run: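 h-CB2/CHO cells in Krebs buffer with 0.1% FAF-BSA and 1 mM IBMX were pre-incubated 10 min with antagonist, then stimulated 30 min at room temperature with 10 nM CP 55,940 plus 10 μM forskolin. cAMP quantified by chemiluminescence; values from nonlinear regression of dose–response curves.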

hCB2 [3] = target: T1, hCB2; assay: In vitro binding assay using hCB2-CHO membranes, [3H]-CP-55,940 displacement (Protocol IV); design: expressed in transfected cells; host or cells: CHO (hCB2-CHO, generated in-house); conditions: for inhibition at 0.3 µM: 1 h, read-out: % Displacement Protocol IV
How it was run: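 Displacement of [3H]-CP-55,940 (0.75 nM) from membranes of CHO cells expressing human CB2 (25-50 μg) was measured in Tris-BSA buffer pH 7.4 with 5 mM MgCl2, 1 mM EDTA, 0.1% BSA, 1 h at 30 °C. Test compounds were at 300 nM final; nonspecific binding defined with 0.5 μM CP-55,940. Values are % displacement of specific binding.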

[4] = hCB2 Agonism IC50, h-CB2/CHO cells
[5] = hCB2-CHO membranes, [3H]-CP-55,940 displacement

Row | Compound | inhibition at 1 µM (hCB1; at 1 uM) [%] | IC50 (hCB2 [1]; [4]) [nM] | inhibition at 10 µM (hCB2 [2]) [%] | inhibition at 0.3 µM (hCB2 [3]; [5]) [%] | inhibition at 10 µM (hCB1; at 10 uM) [%] | IC50 (hCB2 [1]; h-CB2/CHO cells, read-out: hCB2 Agonism IC50) [nM] | inhibition at 0.3 µM (hCB2 [3]) [%] | hCB1 Antagonism (hCB1; at 10 uM) [% at] | % Displacement Protocol IV (hCB2 [3]; [5]) [%]
1 | O=C(NNc1ccccc1Br)c1nn(-c2ccc(Cl)cc2Cl)c2c1C1CCC2C1 (stereo not shown) [Example 263, N(3)-[(2-Bromophenyl)amino]-1-(2,4-dichlorophenyl)-4,5,6,7-tetrahydro-1H-4,7-methano-indazole-3-carboxamide] | 72.1 | 2.5 | 27.1 | 79 |  |  |  |  | 
2 | O=C(NCc1ccccc1Cl)c1nn(-c2ccc(Cl)cc2)c2c1C1CCC2C1 (stereo not shown) [Example 221, N(3)-(2-Chlorobenzyl)-1-(4-chlorophenyl)-4,5,6,7-tetrahydro-1H-4,7-methano-indazole-3-carboxamide] |  |  | 30.1 |  | 0 | 36.4 | 75.7 |  | 
3 | O=C(NC1CCCCC1)c1nn(-c2ccc(Br)cc2)c2c1C1CCC2C1 (stereo not shown) [Example 275, N(3)-Cyclohexyl-1-(4-bromophenyl)-4,5,6,7-tetrahydro-1H-4,7-methano-indazole-3-carboxamide] |  | 4.49 | 19.1 | 72.3 | 0 |  |  |  | 
4 | CN(NC(=O)c1nn(-c2ccc(Cl)cc2)c2c1C1CCC2C1)C1CCCCC1 (stereo not shown) [Example 213, N(3)-[(N-Cyclohexyl-N-methyl)amino]-1-(4-chlorophenyl)-4,5,6,7-tetrahydro-1H-4,7-methano-indazole-3-carboxamide] |  | 12.7 | 22.1 | 71.8 | 0 |  |  |  | 
5 | O=C(NCc1ccc(Cl)cc1Cl)c1nn(-c2ccc(Cl)cc2Cl)c2c1C1CCC2C1 (stereo not shown) [Example 251, N(3)-(2,4-Dichlorobenzyl)-1-(2,4-dichlorophenyl)-4,5,6,7-tetrahydro-1H-4,7-methano-indazole-3-carboxamide] |  | 40.2 | 40.8 | 60.2 | 0 |  |  |  | 
6 | O=C(NN1CCCCC1)c1nn(-c2ccc(Cl)cc2)c2c1C1CC3CC(C1)CC2C3 [Example 140, N(7)-Piperidino-5-(4′-chlorophenyl)-5,6-diazatetracyclo[7.3.1.1^3,11.0^4,8]tetradeca-4(8)-6-diene-7-carboxamide] |  |  |  |  |  |  |  | 19.31 | 15.79
7 | O=C(NNc1ccccc1Cl)c1nn(-c2ccc(Cl)cc2Cl)c2c1C1CCC2C1 (stereo not shown) [Example 257, N(3)-[(2-Chlorophenyl)amino]-1-(2,4-dichlorophenyl)-4,5,6,7-tetrahydro-1H-4,7-methano-indazole-3-carboxamide] |  | 3.7 | 37.5 | 83.9 |  |  |  |  | 
8 | O=C(NNc1ccc(Cl)cc1Cl)c1nn(-c2ccc(Cl)cc2Cl)c2c1C1CCC2C1 (stereo not shown) [Example 260, N(3)-[(2,4-Dichlorophenyl)amino]-1-(2,4-dichlorophenyl)-4,5,6,7-tetrahydro-1H-4,7-methano-indazole-3-carboxamide] |  | 4.1 | 34.8 | 80.2 |  |  |  |  | 
